Data on twelve molecules can be found in patent US20210393633A1, “INHIBITORS OF HUMAN IMMUNODEFICIENCY VIRUS REPLICATION” (ViiV HEALTHCARE UK (NO.5) LIMITED, priority 2018, published 2021).

The subject of data set [1] is recombinant NL4-3 virus (nef section replaced with Renilla luciferase gene) in MT-2 cells. Description: HIV cell culture assay (antiviral activity, luciferase readout in infected MT-2 cells). It counts as cell-based. To be noted: NL43. The procedure: HIV cell culture assay—MT-2 cells, 293T cells and the proviral DNA clone of NL4-3 virus were obtained from the NIH AIDS Research and Reference Reagent Program. MT-2 cells were propagated in RPMI 1640 media supplemented with 10% heat inactivated fetal bovine serum (FBS), […]. The 293T cells were propagated in DMEM media supplemented with 10% heat inactivated FBS, […]. A recombinant NL4-3 proviral clone, in which a section of the nef gene was replaced with the Renilla luciferase gene, was used to make the reference virus used in these studies. The recombinant virus was prepared through transfection of the recombinant NL4-3 proviral clone into 293T cells using Transit-293 Transfection Reagent from Minis Bio LLC (Madison, Wis.). Supernatent was harvested after 2-3 days and the amount of virus present was titered in MT-2 cells using luciferase enzyme activity as a marker by measuring luciferase enzyme activity. Luciferase was quantitated using the EnduRen Live Cell Substrate from Promega (Madison, Wis.). Antiviral activities of compounds toward the recombinant virus were quantified by measuring luciferase activity in MT-2 cells infected for 4-5 days with the recombinant virus in the presence of serial dilutions of the compound.
The 50% effective concentration (EC5o) was calculated by using the exponential form of the median effect equation where (Fa)=1/[1+(ED50/drug conc.)m] (Johnson Va., Byington R T. Infectivity Assay. In Techniques in HIV Research. ed. Aldovini A, Walker B D. 71-76. New York: Stockton Press.1990). The 50% inhibitory concentration (EC50) was calculated by using the exponential form of the median effect equation where percent inhibition=1/[1 +(EC50/drug concentration)m], where m is a parameter that reflects the slope of the concentration-response curve.

The nature of data set [2]: Compound cytotoxicity, XTT-based colorimetric assay. It counts as cell-based. The note with it: human; uninfected MT2 cells, day 4, XTT. The protocol: Compound cytotoxicity and the corresponding CC50 values were determined using the same protocol as described in the antiviral assay except that uninfected cells were used. Cytotoxicity was assessed on day 4 in uninfected MT2 cells by using a XTT (2,3-bis[2-Methoxy-4-nitro-5-sulfophenyl]-2H-tetrazolium-5-carboxyanilide inner salt)-based colorimetric assay (Sigma-Aldrich, St Louis, Mo).

Structures are written as SMILES.

A word on the EC50: it is the concentration that produces a half-maximal response. For orientation: CC50 means the concentration that lowers cell viability or growth by half. The low end stands for harm at low concentration, the high end for better tolerance by the cells. `Cn1nc(NS(C)(=O)=O)c2c(Cl)ccc(-n3c([C@H](Cc4cc(F)cc(F)c4)NC(=O)Cn4nc(C(F)F)c5c4C(F)(F)[C@@H]4C[C@H]54)nc4cc(CCC(=O)N5CCOCC5)ccc4c3=O)c21` [Example 1, N—((S)-1-((3P)-3-(4-chloro-1-methyl-3-(methylsulfonamido)-1H-indazol-7-yl)-7-(3-morpholino-3-oxopropyl)-4-oxo-3,4-dihydroquinazolin-2-yl)-2-(3,5-difluorophenyl)ethyl)-2-((3bS,4aR)-3-(difluoromethyl)-5,5-difluoro-3b,4,4a,5-tetrahydro-1H-cyclopropa[3,4]cyclopenta[1,2-c]pyrazol-1-yl)acetamide]: in data set [1], the EC50 amounted to 0.096 nM. In addition, the CC50 at 4 day in data set [2] was greater than 1000 nM.
For the molecule `C[C@@H]1CC(c2ccc3c(=O)n(-c4ccc(Cl)c5c(NS(=O)(=O)C6CC6)nn(CC(F)F)c45)c([C@H](Cc4cc(F)cc(F)c4)NC(=O)Cn4nc(C(F)F)c5c4C(F)(F)[C@@H]4C[C@H]54)nc3c2)=C[C@H](C)O1` (atropisomer, axis not shown; (P)) [Example 21, N—((S)-1-((3P)-3-(4-chloro-3-(cyclopropanesulfonamido)-1-(2,2-difluoroethyl)-1H-indazol-7-yl)-7-((2R,6S)-2,6-dimethyl-3,6-dihydro-2H-pyran-4-yl)-4-oxo-3,4-dihydroquinazolin-2-yl)-2-(3,5-difluorophenyl)ethyl)-2-((3bS,4aR)-3-(difluoromethyl)-5,5-difluoro-3b,4,4a,5-tetrahydro-1H-cyclopropa[3,4]cyclopenta[1,2-c]pyrazol-1-yl)acetamide], the EC50 in data set [1] was 0.14 nM. The molecule also returned a CC50 at 4 day in data set [2] greater than 500 nM.
For `CS(=O)(=O)Nc1nn(CC(F)F)c2c(-n3c([C@H](Cc4cc(F)cc(F)c4)NC(=O)Cn4nc(C(F)F)c5c4C(F)(F)[C@@H]4C[C@H]54)nc4cc(C5=CCOCC5)ccc4c3=O)ccc(Cl)c12` (atropisomer, axis not shown; (P)) [Example 15, N—((S)-1-((3P)-3-(4-chloro-1-(2,2-difluoroethyl)-3-(methylsulfonamido)-1H-indazol-7-yl)-7-(3,6-dihydro-2H-pyran-4-yl)-4-oxo-3,4-dihydroquinazolin-2-yl)-2-(3,5-difluorophenyl)ethyl)-2-((3bS,4aR)-3-(difluoromethyl)-5,5-difluoro-3b,4,4a,5-tetrahydro-1H-cyclopropal3,41cyclopenta[1,2-c]pyrazol-1-yl)acetamide] the same measures were 0.094 nM and greater than 500 nM.
`CS(=O)(=O)Nc1nn(CC(F)F)c2c(-n3c([C@H](Cc4cc(F)cc(F)c4)NC(=O)Cn4nc(C(F)F)c5c4C(F)(F)[C@@H]4C[C@H]54)nc4cc(C5CCOCC5)ccc4c3=O)ccc(Cl)c12` (atropisomer, axis not shown; (P)) [Example 17, N—((S)-1-((3P)-3-(4-chloro-1-(2,2-difluoroethyl)-3-(methylsulfonamido)-1H-indazol-7-yl)-4-oxo-7-(tetrahydro-2H-pyran-4-yl)-3,4-dihydroquinazolin-2-yl)-2-(3,5-difluorophenyl)ethyl)-2-((3bS,4aR)-3-(difluoromethyl)-5,5-difluoro-3b,4,4a,5-tetrahydro-1H-cyclopropal3,41cyclopenta[1,2-c]pyrazol-1-yl)acetamide]: the EC50 in data set [1] worked out at 0.06 nM. The molecule also registered a CC50 at 4 day in data set [2] greater than 500 nM.
In the case of `C[C@@H]1CC(c2ccc3c(=O)n(-c4ccc(Cl)c5c(NS(C)(=O)=O)nn(CC(F)F)c45)c([C@H](Cc4cc(F)cc(F)c4)NC(=O)Cn4nc(C(F)F)c5c4C(F)(F)[C@@H]4C[C@H]54)nc3c2)=C[C@H](C)O1` (atropisomer, axis not shown; (P)) [Example 20, N—((S)-1-((3P)-3-(4-chloro-1-(2,2-difluoroethyl)-3-(methylsulfonamido)-1H-indazol-7-yl)-7-((2R,6S)-2,6-dimethyl-3,6-dihydro-2H-pyran-4-yl)-4-oxo-3,4-dihydroquinazolin-2-yl)-2-(3,5-difluorophenyl)ethyl)-2-((3bS,4aR)-3-(difluoromethyl)-5,5-difluoro-3b,4,4a,5-tetrahydro-1H-cyclopropa[3,4]cyclopenta[1,2-c]pyrazol-1-yl)acetamide], the EC50 in data set [1] came out at 0.13 nM. For the same molecule, the CC50 at 4 day in data set [2] was greater than 500 nM.
On the same counts, the results for `O=C(Cn1nc(C(F)F)c2c1C(F)(F)[C@@H]1C[C@H]21)N[C@@H](Cc1cc(F)cc(F)c1)c1nc2cc(C3CCOCC3)ccc2c(=O)n1-c1ccc(Cl)c2c(NS(=O)(=O)C3CC3)nn(CC(F)F)c12` (atropisomer, axis not shown; (P)) [Example 18] are 0.084 nM and greater than 500 nM.
Regarding `Cn1nc(NS(C)(=O)=O)c2c(Cl)ccc(-n3c([C@H](Cc4cc(F)cc(F)c4)NC(=O)Cn4nc(C(F)F)c5c4C(F)(F)[C@@H]4C[C@H]54)nc4cc(C5=CCCC5)ccc4c3=O)c21` (atropisomer, axis not shown; (P)) [Example 8, N—((S)-1-((3P)-3-(4-chloro-1-methyl-3-(methylsulfonamido)-1H-indazol-7-yl)-7-(cyclopent-1-en-1-yl)-4-oxo-3,4-dihydroquinazolin-2-yl)-2-(3,5-difluorophenyl)ethyl)-2-((3bS,4aR)-3-(difluoromethyl)-5,5-difluoro-3b,4,4a,5-tetrahydro-1H-cyclopropa[3,4]cyclopenta[1,2-c]pyrazol-1-yl)acetamide], the EC50 in data set [1] amounted to 0.392 nM. This molecule also had a CC50 at 4 day in data set [2] greater than 1000 nM.
As to `COC(C)(C)CCc1ccc2c(=O)n(-c3ccc(Cl)c4c(NS(C)(=O)=O)nn(C)c34)c([C@H](Cc3cc(F)cc(F)c3)NC(=O)Cn3nc(C(F)F)c4c3C(F)(F)[C@@H]3C[C@H]43)nc2c1` (atropisomer, axis not shown; (P)) [Example 24, N—((S)-1-((3P)-3-(4-chloro-1-methyl-3-(methylsulfonamido)-1H-indazol-7-yl)-7-(3-methoxy-3-methylbutyl)-4-oxo-3,4-dihydroquinazolin-2-yl)-2-(3,5-difluorophenyl)ethyl)-2-((3bS,4aR)-3-(difluoromethyl)-5,5-difluoro-3b,4,4a,5-tetrahydro-1H-cyclopropa[3,4]cyclopenta[1,2-c]pyrazol-1-yl)acetamide], the EC50 in data set [1] came to 0.039 nM. The CC50 at 4 day in data set [2] is greater than 500 nM.
For `CC1NCCNC1c1ccc2c(=O)n(-c3ccc(Cl)c4c(NS(C)(=O)=O)nn(C)c34)c([C@H](Cc3cc(F)cc(F)c3)NC(=O)Cn3nc(C(F)F)c4c3C(F)(F)[C@@H]3C[C@H]43)nc2c1` (stereo partly drawn) [Example 10, N-((1S)-1-((3P)-3-(4-chloro-1-methyl-3-(methylsulfonamido)-1H-indazol-7-yl)-7-(3-methylpiperazin-2-yl)-4-oxo-3,4-dihydroquinazolin-2-yl)-2-(3,5-difluorophenyl)ethyl)-2-((3bS,4aR)-3-(difluoromethyl)-5,5-difluoro-3b,4,4a,5-tetrahydro-1H-cyclopropa[3,4]cyclopenta[1,2-c]pyrazol-1-yl)acetamide] the same measures were 0.933 nM and greater than 1000 nM.
On the same counts, the results for `CN1CC=C(c2ccc3c(=O)n(-c4ccc(Cl)c5c(NS(C)(=O)=O)nn(C)c45)c([C@H](Cc4cc(F)cc(F)c4)NC(=O)Cn4nc(C(F)F)c5c4C(F)(F)[C@@H]4C[C@H]54)nc3c2)CC1` (atropisomer, axis not shown; (P)) [Example 13] are 0.098 nM and greater than 1000 nM.
On the same counts, the results for `Cn1nc(NS(C)(=O)=O)c2c(Cl)ccc(-n3c([C@H](Cc4cc(F)cc(F)c4)NC(=O)Cn4nc(C(F)F)c5c4C(F)(F)[C@@H]4C[C@H]54)nc4cc(CCc5ccccc5)ccc4c3=O)c21` (atropisomer, axis not shown; (P)) [Example 3, N—((S)-1-((3P)-3-(4-chloro-1-methyl-3-(methylsulfonamido)-1H-indazol-7-yl)-4-oxo-7-phenethyl-3,4-dihydroquinazolin-2-yl)-2-(3,5-difluorophenyl)ethyl)-2-((3bS,4aR)-3-(difluoromethyl)-5,5-difluoro-3b,4,4a,5-tetrahydro-1H-cyclopropa[3,4]cyclopenta[1,2-c]pyrazol-1-yl)acetamide] are 0.771 nM and greater than 1000 nM.
In the case of `CC(C)CCC(F)(F)c1ccc2c(=O)n(-c3ccc(Cl)c4c(NS(C)(=O)=O)nn(C)c34)c([C@H](Cc3cc(F)cc(F)c3)NC(=O)Cn3nc(C(F)F)c4c3C(F)(F)[C@@H]3C[C@H]43)nc2c1` (atropisomer, axis not shown; (P)) [Example 23, N—((S)-1-((3P)-3-(4-chloro-1-methyl-3-(methylsulfonamido)-1H-indazol-7-yl)-7-(1,1-difluoro-4-methylpentyl)-4-oxo-3,4-dihydroquinazolin-2-yl)-2-(3,5-difluorophenyl)ethyl)-2-((3bS,4aR)-3-(difluoromethyl)-5,5-difluoro-3b,4,4a,5-tetrahydro-1H-cyclopropa[3,4]cyclopenta[1,2-c]pyrazol-1-yl)acetamide], in data set [1], the EC50 is 4.4 nM.
